The values below come from PubChem BioAssay AID463203 (Broad Institute, 2010).

Active and inactive are the calls of the source.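 The calls were made as follows: active = more than half of replicate measurements showing over 20% loss of kinase signal relative to plate controls; inconclusive = some but at most half of replicates over 20% loss; inactive = no replicate over 20% signal loss.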

For the assay, the target named is Glycogen synthase kinase-3 alpha (Homo sapiens) (UniProt P49840). Put plainly: concentration-response blocking of human GSK3A – biochemical, luminescence, cell-free homogeneous, retest, dose response (AID 463203). As to conditions: GSK-3 alpha enzyme, ADP-Glo luminescence, 60 min. (In ADP-Glo the light output rises with the ADP produced.)
Glycogen synthase kinase-3 alpha (Homo sapiens), sequence (P49840 whole entry, looked up): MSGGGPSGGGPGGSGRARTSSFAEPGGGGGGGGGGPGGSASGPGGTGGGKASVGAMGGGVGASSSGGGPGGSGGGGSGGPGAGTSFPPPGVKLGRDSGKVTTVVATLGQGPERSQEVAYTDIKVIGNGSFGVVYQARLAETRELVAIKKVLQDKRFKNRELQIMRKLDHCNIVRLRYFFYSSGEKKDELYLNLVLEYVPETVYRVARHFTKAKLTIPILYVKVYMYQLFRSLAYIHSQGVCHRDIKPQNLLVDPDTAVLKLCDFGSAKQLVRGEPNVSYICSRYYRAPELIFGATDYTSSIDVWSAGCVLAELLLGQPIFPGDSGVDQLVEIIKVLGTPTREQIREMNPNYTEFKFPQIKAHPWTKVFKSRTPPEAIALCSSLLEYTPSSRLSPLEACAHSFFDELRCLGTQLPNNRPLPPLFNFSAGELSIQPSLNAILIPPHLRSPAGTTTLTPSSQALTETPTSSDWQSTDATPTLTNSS

For the molecule `CN1CCN(c2nc(NCc3ccco3)nc(N)c2[N+](=O)[O-])CC1`, the AC50 was > 30 µM (inactive). `CC(=O)c1cnc(Nc2ccccc2)s1`: the AC50 is 20.2 µM. In the case of `O=C1NC(=Nc2cccc(O)c2)S/C1=C\c1cccc([N+](=O)[O-])c1` it was > 30 µM (inactive); in that of `COc1cccc(C(=O)O/N=C(\N)c2ccccn2)c1`, 16.8 µM. In the case of `CS(=O)(=O)Nc1ccc(-c2ccc(/C=C3\SC(N)=NC3=O)o2)cc1` it was 1.02 µM; in that of `CCOC(=O)C1CCN(c2c(C(=O)c3ccccc3)cnc3ccc(Cl)cc23)CC1`, > 30 µM (inactive). Turning to `O=C(N/N=C/c1ccc(O)c(O)c1)NC12CC3CC(CC(C3)C1)C2`, the AC50 was > 30 µM (inactive). Regarding `CCN1CCN(c2c(Cl)cccc2NC(=O)c2ccc(Br)o2)CC1`, the AC50 is 2.59 µM. Regarding `Cc1ccc(N=C2NC(=O)/C(=C\c3ccc(C)s3)S2)cc1`, the AC50 was > 30 µM (inactive). In the case of `O=C(CSc1ccc2nnc(-c3ccc(F)cc3)n2n1)N1CCCc2ccccc21`, the AC50 was 0.98 µM. With `O=C(CSc1nnc(-c2ccncc2)s1)Nc1ccccc1`, the AC50 is > 30 µM (inactive). The value for `COc1cccc(C(=O)NCC(=O)OCC(=O)c2ccccc2)c1` was > 30 µM (inactive); that for `CCC/C(=N/NC(=O)c1nnn(-c2nonc2N)c1CN1CCCCC1)c1ccccc1` was 18.7 µM; that for `Cc1cccc(OCC(=O)Nc2ccc3c(c2)C(=O)NC3=O)c1` was > 30 µM (inactive).

Take `CCCCOC(=O)C1=C(C)Nc2ncnn2C1c1ccc(OC)c(OC)c1OC` (stereo unspecified): the AC50 is 12.4 µM. For the molecule `O=c1[nH]nnc2sc3c(c12)CCCC3`, the AC50 is > 30 µM (inactive). In the case of `CC(C)=CCc1cc(-c2oc3cc(O)cc(O)c3c(=O)c2O)ccc1O` it was 9.4 µM; in that of `CCOC(=O)c1[nH]c2c(c1-c1ccccc1)C(=O)CC(c1ccc(Cl)cc1)C2` (stereo unspecified), > 30 µM (inactive). In the case of `O=C(CSc1nc2ccccc2o1)Nc1nc2ccc(Br)cc2s1` it was > 30 µM (inactive); in that of `COC(=O)C1=C(C)Nc2ncnn2C1c1ccccn1` (stereo unspecified), > 30 µM (inactive).

Take `COc1ccc2cc(C(N)=O)c(=Nc3ccc(C)cc3)oc2c1`: the AC50 was > 30 µM (inactive). On to `COc1ccc(CCNC(=O)CSc2nc3[nH]ncc3c(=O)n2-c2cccc(C(F)(F)F)c2)cc1OC`, for which the AC50 was > 30 µM (inactive). Consider `COc1cc(/C=N/NC(=O)c2nnn(-c3nonc3N)c2-c2cccs2)ccc1O`, for which the AC50 was 4.37 µM. In the case of `Nc1nc(NCCO)nc(N2CCCCCC2)c1[N+](=O)[O-]` it was 18.4 µM; in that of `Cc1ccc(N(Cc2ccc([N+](=O)[O-])cc2)C(=O)c2ccco2)cc1C`, > 30 µM (inactive). For the molecule `COc1c(/C=C2\SC(=Nc3ccccc3Cl)NC2=O)cccc1[N+](=O)[O-]`, the AC50 is > 30 µM (inactive).

For `N#CC1=C2SCN(c3ccccc3)CN2C(=O)CC1c1ccccc1Cl` (stereo unspecified), the AC50 is > 30 µM (inactive). Regarding `O=C(Nc1cccc(F)c1)C1CCCN1S(=O)(=O)c1cccc2cccnc12` (stereo unspecified), the AC50 was 11.8 µM. In the case of `CC1(C)OC2OC(COC(=O)c3ccccc3)C3OC(C)(C)OC3C2O1` (stereo unspecified) it was > 30 µM (inactive); in that of `Cc1ccc(S(=O)(=O)Nc2cccc3cccnc23)cc1`, > 30 µM (inactive). In the case of `N#C/C(=C/Nc1ccccc1)c1ccsc1` it was > 30 µM (inactive). For `NC(=O)c1c(NC(=O)C(=O)N2CCOCC2)sc2c1CCC2`, the AC50 is > 30 µM (inactive). In the case of `CN(C)CCCNS(=O)(=O)c1ccc(-n2nnc3ccccc32)c([N+](=O)[O-])c1` it was > 30 µM (inactive); in that of `CN(C)c1ccc(CN2CCCCC2)cc1`, > 30 µM (inactive); in that of `COc1ccc(C(CNc2ccc(S(=O)(=O)N3CCCC3)cc2[N+](=O)[O-])N2CCCC2)cc1` (stereo unspecified), > 30 µM (inactive).

In the case of `COc1ccc(OC)c(/C=N/NC(=O)c2nnn(-c3nonc3N)c2-c2cccs2)c1`, the AC50 is 1.35 µM. The value for `O=C1CCCN1CCCNc1ncccc1[N+](=O)[O-]` was > 30 µM (inactive); that for `CC(C)c1c(C(=O)N/N=C/c2ccncc2)nnn1-c1nonc1N` was > 30 µM (inactive); that for `CC1(C)CC(=O)C2=C(C1)Nc1nc(SCCN3CCOCC3)[nH]c(=O)c1C2c1cccs1` (stereo unspecified) was > 30 µM (inactive). In the case of `O=C(Nc1ccsc1C(=O)O)c1ccc(Cl)cc1` it was > 30 µM (inactive).

Regarding `Cc1cc(OCc2cc(C(=O)O)oc2C)c2c3c(c(=O)oc2c1)CCCC3`, the AC50 is 21.6 µM. In the case of `Fc1ccc(-c2nc3n(n2)Cc2ccccc2-3)cc1`, the AC50 is > 30 µM (inactive).

Take `COc1ccc(/C=N\NC(=O)c2ccccc2Br)cc1COc1ccccc1`: the AC50 is > 30 µM (inactive). The value for `COc1cc(NC(=O)c2cc([N+](=O)[O-])ccc2NC(=O)CNC2CCCCC2)cc(OC)c1` was > 30 µM (inactive); that for `N#CC1=C2SCN(Cc3ccccc3)CN2C(=O)CC1c1ccccc1F` (stereo unspecified) was > 30 µM (inactive).

Regarding `COc1ccc(/C=C/c2nc3ccccc3n2C)cc1`, the AC50 is 11.4 µM.

In the case of `COc1ccc(CC(=O)Oc2ccccc2C)cc1`, the AC50 was > 30 µM (inactive). The value for `COc1ccccc1N1C(=O)C2C(c3ccc(F)cc3)NN(C(=O)c3ccc(C)cc3)C2C1=O` (stereo unspecified) was > 30 µM (inactive). In the case of `O=C(CSc1nnc(SCc2ccccc2)s1)N/N=C/c1ccc(C(=O)O)cc1` it was 2.55 µM; in that of `O=C(O)Cn1c(=O)c2c3c(sc2n(Cc2ccc(F)cc2)c1=O)CCCC3`, > 30 µM (inactive); in that of `CCOC(=O)c1cc[nH]c1C`, > 30 µM (inactive).

On to `COc1ccc(/C=C2\Oc3cc(OCC(=O)N4CC(O)C[C@H]4C(=O)O)ccc3C2=O)c(OC)c1OC` (stereo partly specified), for which the AC50 was > 30 µM (inactive). In the case of `CCNc1nc(NCC)nc(C(=O)OCCO)n1` it was > 30 µM (inactive); in that of `Cc1ccc(Cn2nc(-c3ccccc3)nc2-c2ccccc2)cc1`, > 30 µM (inactive). The value for `COc1ccc(OCc2nc(N)nc(Nc3ccc(C)cc3)n2)cc1` was > 30 µM (inactive). The value for `CCC(=O)NCCNc1ccc([N+](=O)[O-])cn1` was > 30 µM (inactive). `CCOC(=O)c1sc(NC(=O)CN2C(=O)NC3(CCC(C)CC3)C2=O)c(C(=O)OCC)c1C` (stereo unspecified): the AC50 is > 30 µM (inactive). With `O=C(O)c1ccc2c(c1Nc1ccccc1)C(=O)c1ccccc1C2=O`, the concentration at half-maximal activity (AC50) was 18.6 µM. With `NC(=O)c1cc(Br)cc2c3c([nH]c12)CCCC3`, the AC50 was 9.98 µM. Consider `COc1ccc(N=Cc2c(O)[nH]c3ccccc23)cc1`, for which the AC50 was 19.8 µM. Consider `CNc1nc(Cl)c(SC)c(NC2CCCCC2)n1`, for which the AC50 was > 30 µM (inactive). The value for `Clc1cncc(Cl)c1N/N=C/c1ccncc1` was > 30 µM (inactive); that for `CCOC(=O)N1CCc2c(sc3nc(SC(C)C)n(N)c(=O)c23)C1` was > 30 µM (inactive); that for `CCOc1ccccc1-n1c(O)c(C=NCCCn2ccnc2)c(=O)[nH]c1=O` was 20.5 µM.

`COc1ccc(OC)c(/C=C2\Oc3cc(OCC(=O)N4CC(O)C[C@H]4C(=O)O)ccc3C2=O)c1` (stereo partly specified): the AC50 is > 30 µM (inactive). For the molecule `CN(Cc1c(C(=O)N/N=C/c2ccc(F)cc2)nnn1-c1nonc1N)C1CCCCC1`, the AC50 was > 30 µM (inactive).

As for `O=C(CSc1nc2[nH]ncc2c(=O)n1-c1ccccc1Br)NCc1ccccc1Cl`, the AC50 is > 30 µM (inactive). As to `Cc1csc(NC(=O)C2CC(=O)N(c3ccc(C)c(C)c3)C2)n1` (stereo unspecified), the AC50 is > 30 µM (inactive). In the case of `S=C(NCc1ccc2c(c1)OCO2)NCc1ccc2c(c1)OCO2` it was 25.5 µM; in that of `COc1ccc(OC)c(S(=O)(=O)N2CCN(C(=O)c3cc(C4CC4)nn3-c3ccccc3)CC2)c1`, > 30 µM (inactive). Turning to `Cc1cc(NC(=O)CCSc2nc(-c3ccco3)cc(C(F)(F)F)n2)n(-c2ccccc2)n1`, the AC50 was > 30 µM (inactive).

As to `COc1cc(/C=C2/NC(=O)NC2=O)cc(Br)c1OCc1cccc(C(=O)O)c1`, the AC50 was 6.54 µM. In the case of `Cc1onc(-c2ccccc2Cl)c1C(=O)Nc1cccc(-c2nc3ncccn3c2C)c1` it was > 30 µM (inactive); in that of `O=c1[nH]nc(SCc2ccccc2Cl)n1-c1ccc2c(c1)OCCO2`, 7.11 µM; in that of `Fc1cccc(/C=N/Nc2ccccn2)c1`, > 30 µM (inactive).

In the case of `COc1ccc(OCC(=O)N/N=C/c2ccc(N(C)C)cc2)cc1`, the AC50 was > 30 µM (inactive). In the case of `Cc1cc(N/N=C/c2ccccc2Br)nc2ccccc12` it was > 30 µM (inactive). The value for `COC(=O)c1ccc(CSc2ccc3nnc(-c4ccc(OC)cc4)n3n2)o1` was 17.1 µM; that for `CN(Cc1nc2c(s1)CCCC2)C(=O)CCc1nnc(-c2ccccc2)o1` was > 30 µM (inactive); that for `CCC(=O)NC(=S)Nc1cccc(C(C)=O)c1` was > 30 µM (inactive). The value for `CC(=O)Oc1ccc(C(=O)c2ccccc2)c(OC(C)=O)c1` was > 30 µM (inactive); that for `CN1C(=O)N(C)C2(c3ccccc3)Nn3c(s/c(=C/c4ccccc4)c3=O)=NC12c1ccccc1` (stereo unspecified) was > 30 µM (inactive); that for `N#Cc1sc2nc(-c3cccs3)cc(-c3ccccc3)c2c1N` was > 30 µM (inactive). As for `CCOc1ccc(Nc2nc(N)c3ccccc3n2)cc1`, the AC50 is 31.2 µM. The value for `Nc1c(O)ccc2c1C(=O)c1ccccc1C2=O` was 18.7 µM; that for `CCN1C(=S)SC(=O)C1=C1C=C(C)N(Cc2ccco2)C(C)=C1` was > 30 µM (inactive); that for `Cn1c2ccc(F)cc2c2nc3ccccc3nc21` was > 30 µM (inactive). The value for `N#Cc1c(Nc2ccccc2)c(C=NCCN2CCOCC2)c[nH]c1=O` was > 30 µM (inactive); that for `N#CCCn1cc(/C=N/O)c(-c2ccc(Cl)cc2)n1` was 21 µM. For `Cc1cccc2cc(C#N)c(NCCNC(=S)NCCCN3CCOCC3)nc12`, the AC50 is > 30 µM (inactive). The value for `CCOc1cc(/C=N/O)ccc1OCc1ccc([N+](=O)[O-])cc1` was > 30 µM (inactive).

Usually AC50 stands for the concentration at which the activity in the assay is half-maximal.
